Measurements taken from PMC8556085, “Antimicrobial and Antioxidant Secondary Metabolites from Trifolium baccarinii Chiov. (Fabaceae) and Their Mechanisms of Antibacterial Action” (BioMed Research International, 2021).
≈ marks a conversion by molar mass, not a printed value. Marks after values point to notes of the source that are not given here.

Assays:
[1] = tested on: Candida albicans ATCC10231; assay: Broth microdilution MIC/MMC; type: cell-based
Protocol: (§1) The antimicrobial activity was performed against five bacterial and two fungal species. The selected microorganisms were the Gram-positive (Staphylococcus aureus ATCC25923, methicillin-resistant Staphylococcus aureus 03 (MRSA03), and methicillin-resistant Staphylococcus aureus 04 (MRSA04)) and Gram-negative (Pseudomonas aeruginosa ATCC27853 and Escherichia coli S2(1)) bacteria and yeast strains of Candida albicans ATCC10231 and Cryptococcus neoformans H99. These microorganisms were taken from our laboratory collection. The fungal and bacterial strains were conserved on Sabouraud Dextrose Agar (SDA, Conda, Madrid, Spain) and nutrient agar (NA, Conda) slants, respectively.
(§2) The antimicrobial activity was investigated by determining the minimum inhibitory concentrations (MICs), minimum bactericidal concentrations (MBC), and minimum fungicidal concentrations (MFCs). MICs of extracts/compounds were monitored using the broth microdilution method. Dimethyl sulfoxide (DMSO, Fisher Chemicals) was used to dissolve the test sample to produce a stock solution that was twofold serially diluted in Mueller-Hinton broth (MHB) for bacteria and Sabouraud Dextrose Broth (SDB) for fungi to obtain a concentration range of 4096 to 0.25 μg/mL. One hundred microliters of each concentration was introduced into a well (96-well microplate) containing 90 μL of SDB or MHB and 10 μL of inoculum (at 1 × 10^6 CFU/mL for bacteria and 1 × 10^5 spores/mL for yeasts) which were added to obtain a final concentration range of 2048 to 0.125 μg/mL. Plates were covered and incubated on the shaker at 37°C, 30°C, and 30°C during 24 h, 48 h, and 72 h for bacteria, Candida albicans, and Cryptococcus neoformans, respectively. The MICs were visually assessed after the incubation period and were considered the lowest sample concentration that inhibits the growth or the visual growth of the organism.
(§3) The positive controls were oxacillin (Sigma-Aldrich, Steinheim, Germany) for bacteria and nystatin (Sigma-Aldrich, Steinheim, Germany) for yeasts, and the negative control was broth with 20 μL of DMSO. The assay was carried out in triplicate.

[2] = tested on: Cryptococcus neoformans H99; assay: Broth microdilution MIC/MMC; type: cell-based
Protocol: as §1, §2, §3

Escherichia coli S2(1) = assay: Broth microdilution MIC/MMC; type: cell-based; details: for MIC: 24 h, 37°C, read-out: MIC
Protocol: as §1, §2, §3

[3] = tested on: Pseudomonas aeruginosa ATCC27853; assay: Broth microdilution MIC/MMC; type: cell-based; details: for MBC / MMC/MIC: Pseudomonas aeruginosa ATCC27853; for MIC: Pseudomonas aeruginosa ATCC27853, 24 h, 37°C, read-out: MIC
Protocol: as §1, §2, §3

[4] = tested on: Staphylococcus aureus ATCC25923; assay: Broth microdilution MIC/MMC; type: cell-based; details: for MBC / MMC/MIC: Staphylococcus aureus ATCC25923; for MIC: Staphylococcus aureus ATCC25923, 24 h, 37°C, read-out: MIC
Protocol: as §1, §2, §3

[5] = tested on: methicillin-resistant Staphylococcus aureus 03 (MRSA03); assay: Broth microdilution MIC/MMC; type: cell-based; details: for MMC/MIC / MBC: MRSA03; for MBC / MIC: Staphylococcus aureus; for MIC: MRSA03, 24 h, 37°C, read-out: MIC
Protocol: as §1, §2, §3

[6] = tested on: methicillin-resistant Staphylococcus aureus 04 (MRSA04); assay: Broth microdilution MIC/MMC; type: cell-based; details: for MMC/MIC / MBC: MRSA04; for MBC / MIC: Staphylococcus aureus; for MIC: MRSA04, 24 h, 37°C, read-out: MIC
Protocol: as §1, §2, §3

[7] = tested on: tested bacteria and yeasts; assay: Broth microdilution MIC/MMC, summary over all strains; type: cell-based
Protocol: as §1, §2, §3

[8] = DPPH free radical scavenging assay; details: mean ± SD
Protocol: The free radical scavenging activity of extracts and compounds was evaluated according to the described method. The EC50 (μg/mL), which is the amount of sample necessary to inhibit by 50% the absorbance of free radical DPPH, was calculated. Vitamin C was used as a standard control. All the analyses were carried out in triplicate and repeated three times.

[9] = Gallic acid equivalent antioxidant capacity (GEAC) assay; details: ABTS radical, 420 nm, 240 s; mean ± SD
Protocol: The GEAC test was performed as described previously with some slight modifications. The laccase was purified from Sclerotinia sclerotiorum according to the described protocol. 20 μL of laccase (1 mM stock solution), 20 μL of test sample, 10 μL of ABTS (2,2′-azino-bis(3-ethylbenzothiazoline-6-sulfonic acid) (74 mM stock solution), and 950 μL of acetate buffer (pH = 5.0, 100 mM) were added in a quartz cuvette. The concentrations of the samples in the assay mixture were 800, 400, 200, 100, and 10 μg/mL for the extracts and 200, 100, 50, 25, and 12.5 μg/mL for the isolated compounds. The content of the generated ABTS^●+ radical was measured at 420 nm after 240 s reaction time and was converted to gallic acid equivalents by the use of a calibration curve (Pearson's correlation coefficient: r = 0.998) constructed with 0, 4, 10, 14, 28, 56, and 84 μM gallic acid standards rather than Trolox. Experiments were done in triplicate and repeated three times with similar results.

[10] = tested on: methicillin-resistant Staphylococcus aureus and methicillin-sensitive S. aureus strains; set-up: method as in PMID 27284353; details: MRSA and MSSA strains, previous study; cited from earlier work
[11] = tested on: Pseudomonas aeruginosa ATCC27853; assay: Bacteriolytic assay (time-kill kinetic method, OD600); type: cell-based; details: Pseudomonas aeruginosa suspension, 2xMIC, after 240 min, compared to the 0 time value
Protocol: (§4) (1) Bacteriolytic Assay. […] Full growth of bacterium in MHB was diluted 100 times and incubated at 37°C to produce an OD600 of 0.8 as a starting inoculum. Sample solutions were added to the starting bacterial suspension to give a final concentration of 2xMIC and incubated at 37°C under agitation at 150 rpm. After the incubation period corresponding to 0, 15, 30, 60, 120, and 240 min, 100 μL was pipetted from each tube and the optical density was recorded at 600 nm using the Biobase UV-Vis spectrophotometer. Corresponding dilutions of test samples were used as blanks. Oxacillin was used as a positive control, and the tubes without an extract/compound served as negative controls. All the measurements were done in triplicate and repeated three times.

[12] = tested on: Staphylococcus aureus ATCC25923; assay: as above; type: cell-based; details: Staphylococcus aureus ATCC25923 suspension, 2xMIC, after 240 min, compared to the 0 time value
Protocol: as §4

catalase = assay: Catalase activity in treated bacterial cell lysates; type: cell-based; details: Staphylococcus aureus ATCC25923 and MRSA03, MIC and 1/2xMIC, 24 h
Protocol: (§5) (3) Antioxidant Enzyme Activities. For evaluation of catalase and superoxide dismutase (SOD) activities, Staphylococcus aureus ATCC25923 and MRSA03 (1.5 × 10^8 CFU/mL, 500 μL) cultures from the late exponential growth phase were treated with MIC and 1/2xMIC of the methanol extract (500 μL), compound 5 (500 μL), and oxacillin (500 μL) solutions and incubated at 37°C for 24 h. The suspension was centrifuged at 3000 rpm for 5 min to separate the supernatant. The pellet was washed twice with PBS and resuspended in 500 μL of cell lysate buffer (1 mM EDTA, 10 Mm Tris-HCl, 0.1% Triton-X-100, and 150 mM NaCl) and incubated at 37°C for 1 h. Contents were then centrifuged at 3000 rpm for 5 min, and the supernatant was collected for enzyme activity assays.
Catalase activity. This was assessed by using a kit (Sigma, catalogue no. CAT100) with a cell lysate. Briefly, 750 μL of assay buffer (50 mM) was mixed with 25 μL of 50 mM H2O2 and 10 μL of cell lysate. […] The absorbance was monitored at 520 nm, and the catalase activity was calculated based on the following equation: [Δμ moles (H2O2) × d × 100)/V × t], where Δμ moles (H2O2) is the difference in amount of H2O2 added to the reaction mixture between blank and given samples, d is the dilution of the original sample for catalase reaction, V is the sample volume in catalase reaction, and t is the reaction duration (min).

[13] = tested on: superoxide dismutase (SOD); assay: Superoxide dismutase (SOD) activity in treated bacterial cell lysates; type: cell-based; details: Staphylococcus aureus ATCC25923 and MRSA03, MIC and 1/2xMIC, 24 h
Protocol: as §5
Superoxide dismutase (SOD) activity. This was determined using a kit (Sigma, catalogue no. 19160) in the cell lysate. […] The reaction mixture was incubated in the dark at 37°C for 20 min, and the absorbance was read at 450 nm on a BioTek Synergy 2 multiplate reader. The SOD activity was calculated based on the following formula: [(ABlank1–ABlank3) − (ASample–ABlank2)/(ABlank1–ABlank3) × 100], where Blank 1 contains ultrapure water, WST solution, and enzyme solution, Blank 2 contains sample solution, WST solution, and dilution buffer, and Blank 3 contains ultrapure water, WST solution, and dilution buffer.

red blood cells (RBCs) = type: cell-based, Wistar rats (Rattus norvegicus)
Protocol: Wistar rats (Rattus norvegicus) aged 10–12 weeks and weighing 220 to 250 g were randomly selected from our colony. Efforts were also made to minimize animal suffering and to reduce the number of animals used in the experiment. Intraperitoneal injection of the mixture of ketamine (50 mg/kg body weight, BW) and xylazine (10 mg/kg BW) was used to anaesthetize the rats in a dose that is commonly used for operation purposes. And subsequently, the unconscious animals were quickly operated on and the whole blood (10 mL) was collected by cardiac puncture into a conical tube containing Ethylenediaminetetraacetic Acid (EDTA) as an anticoagulant. Red blood cells were harvested by centrifugation at room temperature for 10 min at 1,000 × g and were washed three times in PBS buffer^23. The haemolysis assay was evaluated as previously described.

Row | Compound | MBC (Escherichia coli S2(1)) [µg/mL] | MMC/MIC (Escherichia coli S2(1)) | MIC (Escherichia coli S2(1)) [µg/mL] | MBC [3] [µg/mL] | MMC/MIC [3] | MIC [3] [µg/mL] | MBC [4] [µg/mL] | MMC/MIC [4] | MIC [4] [µg/mL] | MMC/MIC [5] | MBC [5] [µg/mL] | MIC [5] [µg/mL] | MMC/MIC [6] | MBC [6] [µg/mL] | MIC [6] [µg/mL] | further results
1 | O=c1cc(-c2ccc(O)c(O)c2)oc2cc(O)cc(O)c12 [compound 3, luteolin] | 32 (≈ 112 µM) | 1 | 32 (≈ 112 µM) | 64 (≈ 224 µM) | 2 | 32 (≈ 112 µM) | 64 (≈ 224 µM) | 2 | 32 (≈ 112 µM) | 1 | 16 (≈ 55.9 µM) | 16 (≈ 55.9 µM) | 2 | 64 (≈ 224 µM) | 32 (≈ 112 µM) | MFC ([1]; Candida albicans ATCC10231): 32 µg/mL (≈ 112 µM); MMC/MIC ([1]; Candida albicans ATCC10231): 2; MIC ([1]; Candida albicans ATCC10231, 48 h, 30°C, read-out: MIC): 16 µg/mL (≈ 55.9 µM); MFC ([2]; Cryptococcus neoformans H99): 16 µg/mL (≈ 55.9 µM); MMC/MIC ([2]; Cryptococcus neoformans H99): 2; MIC ([2]; Cryptococcus neoformans H99, 72 h, 30°C, read-out: MIC): 8 µg/mL (≈ 27.9 µM); antimicrobial activity class of pure compounds by cutoff points ([7]; against specific microorganism, cutoff points of ref 33): significant/moderate; MIC ([7]; read-out: MIC (range over the tested microorganisms)): 8 to 32 µg/mL (≈ 27.9 to 112 µM); DPPH free radical scavenging activity (EC50) [8]: 8.02 ± 1.16^e μg/mL; Gallic acid equivalent antioxidant capacity (GEAC) [9]: 68.30 ± 0.71^f μg/mL; MIC [10]: 62.5 µg/mL (≈ 218 µM)
2 | Cc1onc(-c2ccccc2)c1C(=O)N[C@@H]1C(=O)N2[C@@H]1SC(C)(C)[C@@H]2C(=O)O [oxacillin, reference compound] | 32 (≈ 79.7 µM) | 2 | 16 (≈ 39.9 µM) | 2 (≈ 4.98 µM) | 1 | 2 (≈ 4.98 µM) | 1 (≈ 2.49 µM) | 1 | 1 (≈ 2.49 µM) | 2 | 8 (≈ 19.9 µM) | 4 (≈ 9.96 µM) | 1 | 8 (≈ 19.9 µM) | 8 (≈ 19.9 µM) | MMC/MIC (microbicidal activities) ([7]; against all the tested microorganisms): ≤ 4; decline in cell turbidity [11]: 2%; decline in cell turbidity [12]: 2%; catalase activity vs untreated cell lysates (catalase): significant concentration-dependent decreases; SOD activity vs untreated cell lysates [13]: significant concentration-dependent decreases
3 | Triton X-100 |  |  |  |  |  |  |  |  |  |  |  |  |  |  |  | lysis of RBCs (red blood cells (RBCs)): about 100%
